Source: paper PMC7180948, “New Insights into 4-Anilinoquinazolines as Inhibitors of Cardiac Troponin I–Interacting Kinase (TNNi3K)” (Molecules, 2020)

What was measured:
Experiment in all cases: biochemical
Parameters in all cases: KINOMEscan competition binding panel (Eurofins DiscoverX), single concentration, % inhibition
Details in all cases: read-out: 7 at 1 µM % inhibition
[1] = molecular target: T1, RPS6KA5(Kin.Dom.1-N-terminal) (Homo sapiens, UniProt O75582)
T1 construct: Kin.Dom.1-N-terminal
Method: (§1) KinomeScan® Assay on 7 and 15 was performed as previously described by EuroFins DiscoverX [24]. GSK114 (7) and 15 were submitted for a KINOMEscan® assay to explore the selectivity profile across >400 human kinases at a compound concentration of 1 µM. […] GSK114 (7) is a narrow-spectrum TNNi3K inhibitor but has some potent off-targets including GAK which has been previously reported for this chemotype. […] If utilized together this set of compounds could be useful to investigate TNNi3K biology.

DRAK2 = molecular target: T2, DRAK2 (Homo sapiens, UniProt O94768)
T2 construct: gene STK17B
Method: as §1

CHEK1 = CHEK1 (Homo sapiens, UniProt O14757)
Method: as §1

EPHB2 = EPHB2 (Homo sapiens, UniProt P29323)
Method: as §1

TNNI3K = TNNI3K (Homo sapiens, UniProt Q59H18)
Method: as §1

EPHA6 = EPHA6 (Homo sapiens, UniProt Q9UF33)
Method: as §1

[2] = molecular target: T3, ABL1(M351T)-phosphorylated (Homo sapiens, UniProt P00519, M351T)
T3 construct: phosphorylated
Method: as §1

CAMK4 = CAMK4 (Homo sapiens, UniProt Q16566)
Method: as §1

AKT2 = AKT2 (Homo sapiens, UniProt P31751)
Method: as §1

[3] = molecular target: T4, ABL1(F317L)-nonphosphorylated (Homo sapiens, UniProt P00519, F317L)
T4 construct: nonphosphorylated
Method: as §1

NEK10 = NEK10 (Homo sapiens, UniProt Q6ZWH5)
Method: as §1

INSR = INSR (Homo sapiens, UniProt P06213)
Method: as §1

BIKE = molecular target: T5, BIKE (Homo sapiens, UniProt Q9NSY1)
T5 construct: gene BMP2K
Method: as §1

MAP3K2 = MAP3K2 (Homo sapiens, UniProt Q9Y2U5)
Method: as §1

FLT3(D835V) = FLT3(D835V) (Homo sapiens, UniProt P36888, D835V)
Method: as §1

CLK2 = CLK2 (Homo sapiens, UniProt P49760)
Method: as §1

[4] = molecular target: T6, ABL1(T315I)-phosphorylated (Homo sapiens, UniProt P00519, T315I)
T6 construct: phosphorylated
Method: as §1

YANK3 = molecular target: T7, YANK3 (Homo sapiens, UniProt Q86UX6)
T7 construct: gene STK32C
Method: as §1

DCAMKL1 = molecular target: T8, DCAMKL1 (Homo sapiens, UniProt O15075)
T8 construct: gene DCLK1
Method: as §1

PIP5K1C = PIP5K1C (Homo sapiens, UniProt O60331)
Method: as §1

CHEK2 = CHEK2 (Homo sapiens, UniProt O96017)
Method: as §1

ROCK1 = ROCK1 (Homo sapiens, UniProt Q13464)
Method: as §1

STK35 = STK35 (Homo sapiens, UniProt Q8TDR2)
Method: as §1

CAMK2G = CAMK2G (Homo sapiens, UniProt Q13555)
Method: as §1

T5 sequence (Q9NSY1 whole entry): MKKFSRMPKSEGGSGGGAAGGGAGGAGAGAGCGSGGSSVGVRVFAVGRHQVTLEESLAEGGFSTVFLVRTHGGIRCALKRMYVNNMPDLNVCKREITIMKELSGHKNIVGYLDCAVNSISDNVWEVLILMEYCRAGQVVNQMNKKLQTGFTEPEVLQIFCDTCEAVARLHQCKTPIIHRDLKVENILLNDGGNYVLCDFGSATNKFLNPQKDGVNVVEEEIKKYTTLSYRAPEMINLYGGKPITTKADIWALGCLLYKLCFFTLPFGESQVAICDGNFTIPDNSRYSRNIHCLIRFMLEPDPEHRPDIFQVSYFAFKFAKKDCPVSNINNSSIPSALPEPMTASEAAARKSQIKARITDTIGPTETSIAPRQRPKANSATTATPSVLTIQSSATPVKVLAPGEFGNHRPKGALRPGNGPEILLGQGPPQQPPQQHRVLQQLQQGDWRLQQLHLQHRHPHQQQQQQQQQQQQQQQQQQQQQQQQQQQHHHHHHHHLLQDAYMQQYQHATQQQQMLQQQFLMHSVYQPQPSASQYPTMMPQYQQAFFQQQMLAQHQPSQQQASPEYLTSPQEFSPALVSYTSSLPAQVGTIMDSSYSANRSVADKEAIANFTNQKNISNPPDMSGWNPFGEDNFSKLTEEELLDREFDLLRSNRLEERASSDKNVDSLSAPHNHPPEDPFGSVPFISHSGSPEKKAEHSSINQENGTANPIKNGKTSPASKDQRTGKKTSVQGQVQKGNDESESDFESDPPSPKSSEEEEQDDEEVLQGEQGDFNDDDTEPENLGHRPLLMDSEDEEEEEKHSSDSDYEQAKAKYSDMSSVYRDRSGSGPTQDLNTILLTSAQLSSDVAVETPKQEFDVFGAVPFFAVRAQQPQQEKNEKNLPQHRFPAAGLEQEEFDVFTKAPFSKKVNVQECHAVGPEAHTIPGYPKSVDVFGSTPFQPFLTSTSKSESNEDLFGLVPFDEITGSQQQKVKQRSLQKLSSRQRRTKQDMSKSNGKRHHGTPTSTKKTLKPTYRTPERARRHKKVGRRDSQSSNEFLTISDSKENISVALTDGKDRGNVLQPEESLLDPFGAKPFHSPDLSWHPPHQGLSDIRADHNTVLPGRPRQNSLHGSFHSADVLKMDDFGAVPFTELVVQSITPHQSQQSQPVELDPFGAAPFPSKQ
CAMK4, sequence (Q16566 whole entry): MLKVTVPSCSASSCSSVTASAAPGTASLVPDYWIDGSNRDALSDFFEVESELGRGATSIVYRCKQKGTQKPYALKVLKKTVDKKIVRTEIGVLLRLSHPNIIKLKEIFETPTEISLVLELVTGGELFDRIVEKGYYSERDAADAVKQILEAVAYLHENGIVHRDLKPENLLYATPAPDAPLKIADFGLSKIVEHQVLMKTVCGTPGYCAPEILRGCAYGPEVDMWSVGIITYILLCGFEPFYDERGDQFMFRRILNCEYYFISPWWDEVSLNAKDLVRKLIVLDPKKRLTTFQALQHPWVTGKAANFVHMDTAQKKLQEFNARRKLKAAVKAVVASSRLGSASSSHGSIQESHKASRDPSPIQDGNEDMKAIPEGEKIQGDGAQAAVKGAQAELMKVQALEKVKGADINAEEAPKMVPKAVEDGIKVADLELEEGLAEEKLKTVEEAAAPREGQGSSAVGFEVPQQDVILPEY
ROCK1, sequence (Q13464 whole entry): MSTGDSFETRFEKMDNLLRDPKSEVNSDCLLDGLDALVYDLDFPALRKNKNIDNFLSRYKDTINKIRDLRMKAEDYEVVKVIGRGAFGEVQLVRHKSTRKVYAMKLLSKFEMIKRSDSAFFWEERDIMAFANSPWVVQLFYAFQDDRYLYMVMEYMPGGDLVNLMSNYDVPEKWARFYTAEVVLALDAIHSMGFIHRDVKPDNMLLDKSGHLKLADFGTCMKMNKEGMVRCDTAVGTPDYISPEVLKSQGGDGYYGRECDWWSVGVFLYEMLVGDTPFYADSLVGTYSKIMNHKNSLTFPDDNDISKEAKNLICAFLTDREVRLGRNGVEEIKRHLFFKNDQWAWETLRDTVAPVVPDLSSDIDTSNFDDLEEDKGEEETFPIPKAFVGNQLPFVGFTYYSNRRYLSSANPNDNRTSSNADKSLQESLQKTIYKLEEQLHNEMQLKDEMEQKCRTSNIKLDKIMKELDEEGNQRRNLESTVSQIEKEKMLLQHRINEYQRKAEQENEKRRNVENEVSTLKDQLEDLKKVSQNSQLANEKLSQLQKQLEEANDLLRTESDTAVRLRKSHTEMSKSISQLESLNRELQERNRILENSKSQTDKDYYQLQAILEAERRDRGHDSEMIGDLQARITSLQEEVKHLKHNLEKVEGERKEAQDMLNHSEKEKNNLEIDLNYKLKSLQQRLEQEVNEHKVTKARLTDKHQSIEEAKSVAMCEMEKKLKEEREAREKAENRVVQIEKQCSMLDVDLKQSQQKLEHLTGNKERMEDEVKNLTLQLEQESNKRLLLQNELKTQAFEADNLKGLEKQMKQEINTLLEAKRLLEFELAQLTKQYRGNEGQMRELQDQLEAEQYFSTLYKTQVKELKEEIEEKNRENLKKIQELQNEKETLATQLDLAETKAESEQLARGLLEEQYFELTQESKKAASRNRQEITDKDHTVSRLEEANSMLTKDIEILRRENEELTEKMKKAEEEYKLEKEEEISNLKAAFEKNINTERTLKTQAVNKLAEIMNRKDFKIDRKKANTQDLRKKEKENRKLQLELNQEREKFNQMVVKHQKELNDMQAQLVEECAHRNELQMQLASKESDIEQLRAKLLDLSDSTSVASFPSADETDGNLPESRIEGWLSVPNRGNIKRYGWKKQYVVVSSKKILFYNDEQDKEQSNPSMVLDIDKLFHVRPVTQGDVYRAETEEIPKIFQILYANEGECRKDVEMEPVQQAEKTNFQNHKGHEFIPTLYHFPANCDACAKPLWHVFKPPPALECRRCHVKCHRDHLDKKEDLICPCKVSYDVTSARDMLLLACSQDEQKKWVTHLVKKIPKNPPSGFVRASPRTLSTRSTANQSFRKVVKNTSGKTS
CHEK2, sequence (O96017 whole entry): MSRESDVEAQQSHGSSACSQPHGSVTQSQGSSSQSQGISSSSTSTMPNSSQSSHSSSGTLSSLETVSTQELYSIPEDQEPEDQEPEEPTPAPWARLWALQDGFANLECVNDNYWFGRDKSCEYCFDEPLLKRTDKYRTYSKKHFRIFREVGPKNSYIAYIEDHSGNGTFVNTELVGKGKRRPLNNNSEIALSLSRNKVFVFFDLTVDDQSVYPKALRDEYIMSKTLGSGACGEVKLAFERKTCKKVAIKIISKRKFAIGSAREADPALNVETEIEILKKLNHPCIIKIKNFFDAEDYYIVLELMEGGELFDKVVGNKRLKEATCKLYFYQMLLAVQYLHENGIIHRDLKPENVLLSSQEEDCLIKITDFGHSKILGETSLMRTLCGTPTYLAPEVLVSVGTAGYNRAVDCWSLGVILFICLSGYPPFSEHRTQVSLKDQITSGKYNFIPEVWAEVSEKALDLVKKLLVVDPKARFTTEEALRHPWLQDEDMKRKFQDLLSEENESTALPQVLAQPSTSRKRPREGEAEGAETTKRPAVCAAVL
T8 sequence (O15075 whole entry): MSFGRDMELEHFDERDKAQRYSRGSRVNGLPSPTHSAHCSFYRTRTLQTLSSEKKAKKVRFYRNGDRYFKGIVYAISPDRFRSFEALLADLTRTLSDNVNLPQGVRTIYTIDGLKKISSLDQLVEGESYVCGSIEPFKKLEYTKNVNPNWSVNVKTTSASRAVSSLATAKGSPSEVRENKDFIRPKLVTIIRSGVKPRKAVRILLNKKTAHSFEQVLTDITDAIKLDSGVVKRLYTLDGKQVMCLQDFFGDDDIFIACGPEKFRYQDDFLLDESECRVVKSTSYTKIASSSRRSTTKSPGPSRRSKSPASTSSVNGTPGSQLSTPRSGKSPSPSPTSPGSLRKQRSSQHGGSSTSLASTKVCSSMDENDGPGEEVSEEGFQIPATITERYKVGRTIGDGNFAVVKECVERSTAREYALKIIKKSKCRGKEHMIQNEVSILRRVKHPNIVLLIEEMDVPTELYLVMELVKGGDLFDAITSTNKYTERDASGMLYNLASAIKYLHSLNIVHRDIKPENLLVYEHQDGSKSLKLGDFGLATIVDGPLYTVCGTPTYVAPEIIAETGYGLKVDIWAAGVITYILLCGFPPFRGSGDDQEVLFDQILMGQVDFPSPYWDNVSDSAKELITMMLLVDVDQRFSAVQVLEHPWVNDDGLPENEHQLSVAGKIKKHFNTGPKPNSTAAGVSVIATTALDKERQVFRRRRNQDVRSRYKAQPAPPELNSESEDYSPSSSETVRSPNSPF
AKT2, sequence (P31751 whole entry): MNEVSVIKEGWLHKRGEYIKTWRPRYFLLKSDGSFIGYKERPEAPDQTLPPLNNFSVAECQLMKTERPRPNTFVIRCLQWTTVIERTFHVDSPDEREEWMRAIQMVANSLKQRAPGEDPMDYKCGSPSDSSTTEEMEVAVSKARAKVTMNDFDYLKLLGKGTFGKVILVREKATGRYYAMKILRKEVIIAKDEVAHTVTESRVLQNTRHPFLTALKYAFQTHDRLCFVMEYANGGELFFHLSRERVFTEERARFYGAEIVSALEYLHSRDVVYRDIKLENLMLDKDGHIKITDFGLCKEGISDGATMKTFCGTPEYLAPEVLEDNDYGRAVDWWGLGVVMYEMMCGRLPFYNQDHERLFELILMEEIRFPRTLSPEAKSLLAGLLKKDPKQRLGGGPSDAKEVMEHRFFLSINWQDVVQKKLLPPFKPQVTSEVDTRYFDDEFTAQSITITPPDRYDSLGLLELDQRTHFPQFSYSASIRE

## CNS(=O)(=O)c1ccc(N(C)C)c(Nc2ncnc3cc(OC)c(OC)cc23)c1 [compound 7, 3-((6,7-dimethoxyquinazolin-4-yl)amino)-4-(dimethylamino)-N-methylbenzenesulfonamide]
[1]
  inhibition at 1 µM: 7%
DRAK2
  inhibition at 1 µM: 0%
CHEK1
  inhibition at 1 µM: 0%
EPHB2
  inhibition at 1 µM: 0%
TNNI3K
  inhibition at 1 µM: 62%
EPHA6
  inhibition at 1 µM: 0%
[2]
  inhibition at 1 µM: 6%
CAMK4
  inhibition at 1 µM: 0%
AKT2
  inhibition at 1 µM: 0%
[3]
  inhibition at 1 µM: 29%
NEK10
  inhibition at 1 µM: 0%
INSR
  inhibition at 1 µM: 17%
BIKE
  inhibition at 1 µM: 0%
MAP3K2
  inhibition at 1 µM: 12%
FLT3(D835V)
  inhibition at 1 µM: 91.8%
CLK2
  inhibition at 1 µM: 7%
[4]
  inhibition at 1 µM: 0%
YANK3
  inhibition at 1 µM: 0%
DCAMKL1
  inhibition at 1 µM: 12%
PIP5K1C
  inhibition at 1 µM: 33%
CHEK2
  inhibition at 1 µM: 11%
ROCK1
  inhibition at 1 µM: 1%
STK35
  inhibition at 1 µM: 0%
CAMK2G
  inhibition at 1 µM: 0%
